The values below come from patent US12478624B2, “Heterocyclic derivatives, pharmaceutical compositions and their use in the treatment or amelioration of cancer” (Tolremo Therapeutics AG, priority 2019, dated 2025).

Test [1] relates to OPM-2. Kind of test: Assay 2: multiple myeloma cellular efficacy, PrestoBlue cell proliferation/survival. The format is cell-based. The note with it: Homo sapiens, 96 h, OPM-2 cells, 4 days. In a few lines: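 Cells seeded at 10000/well and exposed to a compound dose range or vehicle for 4 days, then stained with PrestoBlue for 2 h at 37 °C. Fluorescence was background-subtracted and normalized to vehicle; EC50 came from a four-parameter variable-slope fit against log concentration.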

In test [2] the test system is A375 cells. The test is described as follows: Assay 1: A375 cells treated with S1152, S1008 and compound, immunofluorescence (sc-365823) signal. The format is cell-based. The note with it: 1 μM S1152 + 0.5 μM S1008, one day. The method in brief:
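A375 cells treated one day with 1 μM S1152, 0.5 μM S1008 and compound dose ranges in DMEM/10% FCS, then fixed, permeabilised and immunostained. Green signal normalised to nuclear counterstain (ethidium-type or DAPI), log ratio fitted by four-parameter regression for EC50.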

Regarding `CC(=O)N1C[C@H](c2nc(Nc3cc(C)nc(C)c3)cc(-c3cccnc3)n2)CC[C@@H]1C` [Compound 00138, 1-((2S,5R)-5-(4-((2,6-dimethylpyridin-4-yl)amino)-6-(pyridin-3-yl)pyrimidin-2-yl)-2-methylpiperidin-1-yl)ethan-1-one], the concentration giving a half-maximal response (EC50) (in general, the concentration giving half of the maximal effect) in test [1] is 200 to 1000 nM; in test [2], less than 200 nM.

In the case of `COCCOc1cncc(-c2cc(Nc3ccnc(F)c3)nc([C@@H]3CC[C@H](C)N(C(C)=O)C3)n2)c1` [Compound 00119, 1-((2S,5R)-5-(4-((2-fluoropyridin-4-yl)amino)-6-(5-(2-methoxyethoxy)pyridin-3-yl)pyrimidin-2-yl)-2-methylpiperidin-1-yl)ethan-1-one], the EC50 in test [1] and in test [2] was less than 200 nM in each case.

Turning to `CC(=O)N1C[C@H](c2nc(Nc3cccc(NC(=O)C4CC4)c3)cc(-c3cccnc3)n2)CC[C@@H]1C` [Compound 00089, N-(3-((2-((3R,6S)-1-acetyl-6-methylpiperidin-3-yl)-6-(pyridin3-yl)pyrimidin-4-yl)amino)phenyl)-cyclopropanecarboxamide], the half-maximal effective concentration (EC50) in test [1] and in test [2] was less than 200 nM in each case.

Turning to `CC(=O)N1C[C@H](c2nc(Nc3ccnc(C)c3)cc(-c3cnccn3)n2)CC[C@@H]1C` [Compound 000126], the EC50 in test [1] and in test [2] was less than 200 nM in each case.

For `CC(=O)N1C[C@H](c2nc(Nc3ccnc(C)c3)cc(-c3cncc(OC(F)F)c3)n2)CC[C@@H]1C` [Compound 00111, 1-((2S,5R)-5-(4-(5-(difluoromethoxy)pyridin3-yl)-6-((2-methylpyridin4-yl)amino)pyrimidin-2-yl)-2-methylpiperidin-1-yl)ethan-1-one], the concentration giving a half-maximal response (EC50) in test [1] was 200 to 1000 nM; in test [2], less than 200 nM.

For the compound `CC(=O)N1C[C@H](c2nc(Nc3ccnc(C)c3)cc(-c3cccnc3)n2)CC[C@@H]1C` [Compound 00095, 1-((2S,5R)-2-methyl-5-(4-((2-methylpyridin-4-yl)amino)-6-(pyridin-3-yl)pyrimidin-2-yl)piperidin-1-yl)ethan-1-one], the EC50 in test [1] and in test [2] was less than 200 nM each time.

For the compound `CC(=O)N1C[C@H](c2nc(Nc3cccc4c3cnn4C)cc(-c3cnccn3)n2)CC[C@@H]1C` [Compound 00049, 1-((2S,5R)-2-methyl-5-(4-((1-methyl-1H-indazol-4-yl)amino)-6-(pyrazin-2-yl)pyrimidin-2-yl)piperidin-1-yl)ethan-1-one], the EC50 in test [1] and in test [2] was less than 200 nM in each case.

Take `CC(=O)N1C[C@H](c2nc(Nc3ccnc(F)c3)cc(-c3cncc(O)c3)n2)CC[C@@H]1C` [Compound 00117, 1-((2S,5R)-5-(4-((2-fluoropyridin-4-yl)amino)-6-(5-hydroxypyridin-3-yl)pyrimidin-2-yl)-2-methylpiperidin-1-yl)ethan-1-one]: the EC50 in test [1] and in test [2] was 1000 to 10000 nM in each case.

As to `CC(=O)N1C[C@H](c2nc(Nc3cccc(NC(=O)c4ccccc4)c3)cc(-c3cccnc3)n2)CC[C@@H]1C` [Compound 00079, N-(3-((2-((3R,6S)-1-acetyl-6-methylpiperidin-3-yl)-6-(pyridin-3-yl)pyrimidin-4-yl)amino)phenyl)benzamide], the EC50 in test [1] and in test [2] was less than 200 nM in each case.

Take `CC(=O)N1C[C@H](c2nc(Nc3cccc4c3CC(=O)N4)cc(-c3cccnc3)n2)CC[C@@H]1C` [Compound 00051, 4-((2-((3R,6S)-1-acetyl-6-methylpiperidin-3-yl)-6-(pyridin-3-yl)pyrimidin-4-yl)amino)indolin-2-]: the EC50 is 1000 to 10000 nM in test [1] and 200 to 1000 nM in test [2].

On to `COc1cncc(-c2cc(Nc3cncc(C)c3)nc([C@@H]3CC[C@H](C)N(C(C)=O)C3)n2)c1` [Compound 00132, 1-((2S,5R)-5-(4-(5-methoxypyridin-3-yl)-6-((5-methylpyridin-3-yl)amino)pyrimidin-2-yl)-2-methylpiperidin-1-yl)ethan-1-one], for which the half-maximal effective concentration (EC50) in test [1] and in test [2] was less than 200 nM each time.

As for `CC(=O)N1C[C@H](c2nc(Nc3ccnc(C)c3)cc(-c3cncc(C)n3)n2)CC[C@@H]1C` [Compound 00131, 1-((2S,5R)-2-methyl-5-(4-(6-methylpyrazin-2-yl)-6-((2-methylpyridin-4-yl)amino)pyrimidin-2-yl)piperidin-1-yl)ethan-1-one], the half-maximal effective concentration (EC50) in test [1] and in test [2] was less than 200 nM each time.

Consider `CC(=O)N1C[C@H](c2nc(Nc3cccc(-c4nnc(C)o4)c3)cc(-c3cccnc3)n2)CC[C@@H]1C` [Compound 00142, 1-((2S,5R)-2-methyl-5-(4-((3-(5-methyl-1,3,4-oxadiazol-2-yl)phenyl)amino)-6-(pyridin-3-yl)pyrimidin-2-yl)piperidin-1-yl)ethan-1-one], for which the EC50 in test [1] and in test [2] was less than 200 nM throughout.

Take `CC(=O)Nc1cccc(Nc2cc(-c3cncc4c3ccn4C)nc([C@@H]3CC[C@H](C)N(C(C)=O)C3)n2)c1` [Compound 00085, N-(3-((2-((3R,6S)-1-acetyl-6-methylpiperidin-3-yl)-6-(1-methyl-1H-pyrrolo[2,3-c]pyridin-4-yl)pyrimidin-4-yl)amino)phenyl)acetamide]: the concentration for a half-maximal effect (EC50) in test [1] and in test [2] was less than 200 nM in each case.

For the compound `CC(=O)N1C[C@H](c2nc(Nc3cccc(-c4nnco4)c3)cc(-c3cccnc3)n2)CC[C@@H]1C` [Compound 00141, 1-((2S,5R)-5-(4-((3-(1,3,4-oxadiazol-2-yl)phenyl)amino)-6-(pyridin-3-yl)pyrimidin-2-yl)-2-methylpiperidin-1-yl)ethan-1-one], the EC50 in test [1] and in test [2] was less than 200 nM throughout.

Consider `CC(=O)Nc1cccc(Nc2cc(-c3cccnc3)nc([C@@H]3CC[C@H](C)N(C(C)=O)C3)n2)c1` [Compound 00054, N-(3-((2-((3R,6S)-1-acetyl-6-methylpiperidin-3-yl)-6-(pyridin-3-yl)pyrimidin-4-yl)amino)phenyl)acetamide], for which the concentration for a half-maximal effect (EC50) in test [1] and in test [2] was less than 200 nM throughout.

Consider `CC(=O)N1C[C@H](c2nc(-c3cnccn3)cc(N(C)c3ccnc(C)c3)n2)CC[C@@H]1C` [Compound 00167, 1-((2S,5R)-2-methyl-5-(4-(methyl(2-methylpyridin-4-yl)amino)-6-(pyrazin-2-yl)pyrimidin-2-yl)piperidin-1-yl)ethan-1-one], for which the 50% effective concentration (EC50) in test [1] was 1000 to 10000 nM; in test [2], 200 to 1000 nM.

In the case of `CC(=O)N1C[C@H](c2nc(Nc3cc(-c4cnn(C)c4)cc(C(F)F)c3)cc(-c3cnccn3)n2)CC[C@@H]1C` [Compound 00055, 1-((2S,5R)-5-(4-((3-(difluoromethyl)-5-(1-methyl-1Hpyrazol-4-yl)phenyl)amino)-6-(pyrazin-2-yl)pyrimidin-2-yl)-2-methylpiperidin-1-yl)ethan-1-one], the EC50 in test [1] and in test [2] was less than 200 nM throughout.

For `COCCOc1cncc(-c2cc(Nc3cc(F)cc(-c4cnn(C)c4)c3)nc([C@@H]3CC[C@H](C)N(C(C)=O)C3)n2)c1` [Compound 00091, 1-((2S,5R)-5-(4-((3-fluoro-5-(1-methyl-1H-pyrazol-4-yl)phenyl)amino)-6-(5-(2-methoxyethoxy)pyridin-3-yl)pyrimidin-2-yl)-2-methylpiperidin-1-yl)ethan-1-one], the concentration giving a half-maximal response (EC50) in test [1] and in test [2] was less than 200 nM each time.

With `CC(=O)N1C[C@H](c2nc(Nc3ccnc(C)c3)cc(-c3cncc(N4CC(C(=O)N(C)C)C4)c3)n2)CC[C@@H]1C` [Compound 00113, 1-(5-(2-((3R,6S)-1-acetyl-6-methylpiperidin-3-yl)-6-((2-methylpyridin-4-yl)amino)pyrimidin-4-yl)pyridin-3-yl)-N,N-dimethylazetidine-3-carboxamide], the 50% effective concentration (EC50) in test [1] and in test [2] was 1000 to 10000 nM in each case.

As for `CC(=O)Nc1cc(Nc2cc(-c3cnccn3)nc([C@@H]3CC[C@H](C)N(C(C)=O)C3)n2)cc(C(F)F)c1` [Compound 00059, N-(3-((2-((3R,6S)-1-acetyl-6-methylpiperidin-3-yl)-6-(pyrazin-2-yl)pyrimidin-4-yl)amino)-5-(difluoromethyl)phenyl)acetamide], the EC50 in test [1] and in test [2] was less than 200 nM throughout.

With `CC(=O)N1C[C@H](c2nc(Nc3ccnc(C(C)(F)F)c3)cc(-c3cccnc3)n2)CC[C@@H]1C` [Compound 00146, 1-((2S,5R)-5-(4-((2-(1,1-difluoroethyl)pyridin-4-yl)amino)-6-(pyridin-3-yl)pyrimidin-2-yl)-2-methylpiperidin-1-yl)ethan-1-one], the 50% effective concentration (EC50) was 200 to 1000 nM in test [1] and less than 200 nM in test [2].

Turning to `CC(=O)N1C[C@H](c2nc(Nc3ccnc(C(F)F)c3)cc(-c3cnccn3)n2)CC[C@@H]1C` [Compound 00130, 1-((2S,5R)-5-(4-((2-(difluoromethyl)pyridin-4-yl)amino)-6-(pyrazin-2-yl)pyrimidin-2-yl)-2-methylpiperidin-1-yl)ethan-1-one], the EC50 in test [1] and in test [2] was less than 200 nM throughout.

Turning to `CC(=O)N1C[C@H](c2nc(Nc3cccc(F)c3)cc(-c3cccnc3)n2)CC[C@@H]1C` [Compound 00080, 1-((2S,5R)-5-(4-((3-fluorophenyl)amino)-6-(pyridin-3-yl)pyrimidin-2-yl)-2-methylpiperidin-1-yl)ethan-1-one], the EC50 in test [1] is 200 to 1000 nM; in test [2] it was less than 200 nM.

As for `CC(=O)N1C[C@H](c2nc(Nc3cc(F)ccn3)cc(-c3cnccn3)n2)CC[C@@H]1C` [Compound 00156, 1-((2S,5R)-5-(4-((4-fluoropyridin-2-yl)amino)-6-(pyrazin2-yl)pyrimidin-2-yl)-2-methylpiperidin-1-yl)ethan-1-one], the EC50 in test [1] and in test [2] was 200 to 1000 nM each time.
